{"source": "patent US20230044649A1", "about": "“METHODS TO ENHANCE BIOAVAVAILABILITY OF ORGANIC SMALL MOLECULES AND DEPOSITED FILMS MADE THEREFROM” (THE REGENTS OF THE UNIVERSITY OF MICHIGAN, priority 2015, published 2023)", "key": {"Solubility at pH 7.4": {"experiment": "Solubility at pH 7.4", "assay_type": "physicochemical"}, "[1]": {"test_system": "ovarian carcinoma cell line, OVCAR3", "experiment": "Cancer cell growth inhibition by drug film, powder or DMSO solution", "assay_type": "cell-based", "details": "for OVCAR3 cancer cells viability: after 48 hours, nominal 5 μM", "procedure": "The printed films of BAY 11-7082 are tested by applying OVCAR3 cells solution directly onto the film, as compared to the BAY 11-7082 drug in powder form dissolved in DMSO.\nSee FIG. 11 showing drug application in a film form."}, "physchem": {"experiment": "physchem", "details": "20 °C", "procedure": "First, solubilities of the different compounds in corresponding solvents are measured at temperature 20±1° C."}, "[2]": {"experiment": "Intrinsic dissolution rate (IDR) of films compared with compressed powder pellets", "assay_type": "physicochemical", "details": "comparable to compressed pellets, about 10 ml, 20±1° C., solvent per compound as", "procedure": "(§1) For dissolution rate experiments a USP 2 stirring apparatus with stirring speed of 100 rpm is used. Concentration is monitored using UV-VIS spectrometer equipped with dipping probe. As an example glass slides substrates with deposited 9 mm diameter drug films are used. Films weights are in the range of 5-80 μg. First, intrinsic dissolution rate (IDR) of films is studied and compared it to dissolution of compressed powder in form of 1.57 mm diameter pellets. IDR is defined as Equation (4): […]\nIn this case (dm/dt)max is maximum slope in a dissolution curve evaluated at the start of dissolution process (m—dissolved solute mass). Glass substrates with deposited films are attached to a stirring rod having same diameter as compressed pellets rod (20 mm), assuring that hydrodynamic boundary layer thickness is same for compressed powder and deposited film. Solution volume remains constant in all experiments, about 10 ml, and temperature is 20±1° C."}, "[3]": {"experiment": "Initial dissolution rate of printed film versus loose powder (USP 2 stirring apparatus, UV-VIS)", "assay_type": "physicochemical", "description": "When comparing dissolution from powder form and film form for the same material and same crystal structure, D, V, Cs are constant and initial dissolution rate will be proportional to A/δ. δ and A are constant for dissolution from film since area of the film is not changing during dissolution. In a powder, δ and A are changing since particles size and shape is changing. […] Therefore only the initial rate can be compared between powder and a film.\nIn order to compare film form versus original powder dissolution behavior, loose powders with same weight as films are introduced into 10 ml solution without any prior treatment and stirred using stirring rod with same shape and diameter as one that is used for films. All experiments are performed at temperature […].\nas §1"}, "[4]": {"experiment": "Surface area of printed film and of powder", "assay_type": "physicochemical"}, "[5]": {"test_system": "breast carcinoma cell line, MCF7", "experiment": "Cancer cell growth inhibition by drug film, powder or DMSO solution", "assay_type": "cell-based", "details": "after 48 hours, nominal 5 μM"}, "[6]": {"details": "powder form dissolved in growth medium"}}}
{"smiles": "Cc1ccc(S(=O)(=O)/C=C/C#N)cc1", "note": "[BAY 11-7082, (E)-3-(4-Methylphenylsulfonyl)-2-propenenitrile]", "values": [{"measurement": "solubility", "setting": "Solubility at pH 7.4", "result": "29.25 ± 0.05", "unit": "µg/mL"}, {"measurement": "efficacy / viability with film form drug compared with drug dissolved in DMSO", "setting": "[1]; OVCAR3 cells applied directly onto the film", "result": "No significant difference in efficacy"}]}
{"smiles": "O=C1OC2(c3ccc(O)cc3Oc3cc(O)ccc32)c2ccccc21", "note": "[fluorescein]", "values": [{"measurement": "solubility", "setting": "physchem; water", "result": "10 ± 0.5", "unit": "µg/mL"}]}
{"smiles": "CC(C)Cc1ccc(C(C)C(=O)O)cc1", "note": "(stereo not drawn) [ibuprofen]", "values": [{"measurement": "intrinsic dissolution rate (IDR)", "setting": "[2]", "result": "1×10^−3±3×10^−4 μg sec^−1 mm^−2"}, {"measurement": "enhancement of initial dissolution rate in film versus loose powder", "setting": "[3]; aqueous HCl buffer pH 1.2, FIG. 10(b), 19±1° C.", "result": "about 30 times"}, {"measurement": "initial dissolution rate, printed film relative to powder", "setting": "[3]; ibuprofen in buffer HCl 1.3", "result": "about 10 times higher"}, {"measurement": "initial dissolution rate", "setting": "[3]; ibuprofen in buffer HCl 1.3, 30 μg of powder", "result": 0.0004, "unit": "µg/mL/s"}, {"measurement": "initial dissolution rate", "setting": "[3]; ibuprofen in buffer HCl 1.3, printed film", "result": 0.04, "unit": "µg/mL/s"}, {"measurement": "film surface area relative to powder surface area", "setting": "[4]", "result": "about 5 times higher"}, {"measurement": "solubility", "setting": "physchem; pH 1.2, simulated gastric fluid", "result": "22.5 ± 0.5", "unit": "µg/mL"}]}
{"smiles": "CC/C(=C(\\c1ccccc1)c1ccc(OCCN(C)C)cc1)c1ccccc1", "note": "[tamoxifen]", "values": [{"measurement": "OVCAR3 cancer cells viability", "setting": "[1]; film form", "result": 44, "unit": "%"}, {"measurement": "OVCAR3 cancer cells viability", "setting": "[1]; [6]", "result": 68, "unit": "%"}, {"measurement": "intrinsic dissolution rate (IDR)", "setting": "[2]", "result": "6×10^−4±1×10^−4 μg sec^−1 mm^−2"}, {"measurement": "MCF7 cancer cells viability", "setting": "[5]; film form", "result": 58, "unit": "%"}, {"measurement": "MCF7 cancer cells viability", "setting": "[5]; [6]", "result": 79, "unit": "%"}]}
